Consider 19 compounds from patent US7084155B2, “Chemokine receptor binding heterocyclic compounds” (AnorMED, priority 2000, dated 2006).

Structures are written as SMILES.

In experiment [1] the test system is HIV-1 NL4.3 or IIIB. The experiment in a line: Inhibition of HIV-1 (NL4.3 or IIIB, CXCR4 using) replication in MT-4 cells, MTT viability. Type of experiment: cell-based. Particulars: Human immunodeficiency virus 1, IIIB, MT4, concentration protecting 50% of virus-infected cells against viral cytopathicity. As to the method:
Assay for Inhibition of HIV-1 (NL4.3) Replication in MT-4 Cells Inhibition of HIV-1 NL4.3 (or IIIB, CXCR4 using) replication assays were performed as previously described (Bridger et al. J. Med. Chem. 1999, 42, 3971-3981; De […] et al. Proc. Natl. Acad. Sci, 1992, 89, 5286-5290; De […] et al. Antimicrob. Agents Chemother. 1994, 38, 668-674; Bridger et al. J. Med. Chem. 1995, 38, 366-378; Schols et al. J. Exp. Med., 1997, 186, 1383-1388). Anti-HIV activity and cytotoxicity measurements were carried out in parallel. They were based on the viability of MT-4 cells that had been infected with HIV in the presence of various concentrations of the test compounds. After the MT-4 cells were allowed to proliferate for 5 days, the number of viable cells was quantified by a tetrazolium-based colorimetric 3-(4,5-dimethylthiazol-2-yl)-2,5-diphenyltetrazolium bromide (MTT) procedure in 96-well microtrays. In all of these assays, viral input (viral multiplicity of infection, MOI) was 0.01, or 100 times the 50% cell culture infective dose (CCID50). The EC50 was defined as the concentration required to protect 50% of the virus-infected cells against viral cytopathicity.

Experiment [2] relates to SDF-1 induced Ca flux in SUP-T1 cells. The experiment in a line: Inhibition of chemokine (SDF-1) induced Ca flux measured on a FLIPR. Type of experiment: cell-based. The note with it: Homo sapiens. The protocol:
Inhibition of Chemokine Induced Ca Flux Measured on a FLIPR (Molecular Devices) Loading dye: Fluo-3, AM (Molecular Probes F-1241) is dissolved in anhydrous DMSO and stored frozen in aliquots. To increase the solubility of the dye in the loading medium, 10% (w/v) pluronic acid (Molecular Probes F-127) is added to the Fluo-3 stock solution immediately before use. HBSS+20 mM Hepes buffer+0.2% BSA, pH 7.4. HBSS 10× [(w/o phenol red and sodium bicarbonate (Gibco 14 065–049)]; Hepes buffer 1M (Gibco 15 630–056), BSA (Sigma A3675). The flux buffer is vacuum-filtered and stored refrigerated for a maximum of 5 days. Before use in the experiment, the buffer is warmed at 37° C. in a waterbath. The test compounds were diluted in flux buffer to the desired concentration and added to 4 wells of a black microplate (4 parallel measurements per compound). The following control wells were used: 100% response control (no inhibition), flux buffer was added; 100% inhibition control: chemokine was added at 5-times the concentration required to induce a Ca flux. The chemokines are diluted in flux buffer to concentrations that are 4-fold higher than the desired concentrations required for stimulation of the cells (i.e. 2.5 nM for SDF-1[…] and 0.6 nM for RANTES). The chemokines were added to untreated 96-well Sero well compound plates (International Medical, Sterilin code 611F96). In the negative control well's (baseline monitoring), flux buffer is added instead of chemokine. As a positive control to check for dye loading efficiency, 20 μM digitonin (final concentration) was also included. The agonist plate was incubated in the FLIPR (37° C.) for 15–30 min. Cell Loading Protocol for Measuring Inhibition of SDF-1[…] Induced Ca Flux in SUP-T1 Cells. SUP-T1 cells were centrifuged at room temperature (RT) and re-suspended in loading medium (RPMI-1640 containing 2% FBS and 4 μM Fluo-3, AM). The cells were incubate at room temperature for 45 min. then washed twice in flux buffer then incubated in flux buffer at room temperature for 10 min. The cells were centrifuged and re-suspended in flux buffer at a density of 3×10^6 cells per mL. A 100 uL aliquot of the cell suspension (3×10^5 cells) was added to each well of a black microplate (Costar 3603), which already contains 50 uL of a solution of the test compound (at concentrations that are 3-fold higher than the desired final compound concentrations). The microplate is then gently centrifuged at room temperature. Homogeneous spreading of the cells on the bottom of the microplate wells was then confirmed with a microscope and the microplate was incubated in the FLIPR (37° C.) for 10 min. prior to testing. Fluorescence Measurements as a Function of Time on the FLIPR The FLIPR settings (camera exposure time and laser power) are adjusted to obtain initial fluorescence values between 8,000 and 10,000 units. After monitoring a 20 second-baseline, the agonist (chemokine) (50 uL) is added by automatic pipettor with black pipette tips. Fluorescence is measured simultaneously in all wells of the microplate every 2 seconds (first 2 min) and thereafter every 6 seconds (additional 2 min). The average ca-flux measured in each set of 4 identical wells (one test compound) was calculated by the FLIPR software.

As for `c1cnc2c(c1)CCCC2NCc1ccc(CN(Cc2nc3ccccc3[nH]2)C2CCCc3cccnc32)cc1` (stereo not shown) [Example 60, N-(5,6,7,8-tetrahydro-8-quinolinyl)-N′-(1H-benzimidazol-2-ylmethyl)-N′-(5,6,7,8-tetrahydro-8-quinolinyl)-1,4-benzenedimethanamine], the concentration for a half-maximal effect (EC50) (usually the midpoint of the concentration-response curve) in experiment [1] is below 20 µg/mL. Besides, the inhibition (as a rule, the percentage by which the read-out fell short of the control) at 20 µg/mL in experiment [2] is above 20%. The compound `c1ccc(CNCc2ccc(CN(Cc3nc4ccccc4s3)C3CCCc4cccnc43)cc2)nc1` (stereo not shown) [Example 16, N-(2-pyridinylmethyl)-N′-(benzothiazol-2-ylmethyl)-N′-(5,6,7,8-tetrahydro-8-quinolinyl)-1,4-benzenedimethanamine] displayed an EC50 in experiment [1] below 20 µg/mL. Regarding `CCCOc1cccnc1CNCc1ccc(CN(Cc2nc3ccccc3[nH]2)C2CCCc3cccnc32)cc1` (stereo not shown) [Example 59, N-(3-propoxy-2-pyridinylmethyl)-N′-(1H-benzimidazol-2-ylmethyl)-N′-(5,6,7,8-tetrahydro-8-quinolinyl)-1,4-benzenedimethanamine], in experiment [1], the EC50 was below 20 µg/mL. The inhibition at 20 µg/mL in experiment [2] was above 20%. The matching figures for `Cc1ccc2nc(CN(Cc3ccc(CNCc4ccccn4)cc3)C3CCCc4cccnc43)[nH]c2c1C` (stereo not shown) [Example 4, N-(2-pyridinylmethyl)-N′-(4,5-dimethyl-1-H-benzimidazol-2-ylmethyl)-N′-(5,6,7,8-tetrahydro-8-quinolinyl)-1,4-benzenedimethanamine]: below 20 µg/mL and above 20%.

The compound `COc1cccnc1CNCc1ccc(CN(Cc2nc3ccccc3[nH]2)C2CCCc3cccnc32)cc1` (stereo not shown) [Example 65, N-(3-methoxy-2-pyridinylmethyl)-N′-(1H-benzimidazol-2-ylmethyl)-N′-(5,6,7,8-tetrahydro-8-quinolinyl)-1,4-benzenedimethanamine] yielded an EC50 in experiment [1] below 20 µg/mL. In experiment [2], this compound displayed an inhibition at 20 µg/mL above 20%. Take `Brc1cccc2nc(CN(Cc3ccc(CNCc4ccccn4)cc3)C3CCCc4cccnc43)[nH]c12` (stereo not shown) [Example 22, N-(2-pyridinylmethyl)-N′-(4-bromobenzimidazol-2-ylmethyl)-N′-(5,6,7,8-tetrahydro-8-quinolinyl)-1,4-benzenedimethanamine]: in experiment [1], the EC50 is below 20 µg/mL. In addition, the inhibition at 20 µg/mL in experiment [2] is above 20%.

In experiment [1], `COc1ccc2nc(CN(Cc3ccc(CNCc4ccccn4)cc3)C3CCCc4cccnc43)[nH]c2c1` (stereo not shown) [Example 12, N-(2-pyridinylmethyl)-N′-[5-methoxy-1H-benzimidazol-2-ylmethyl]-N′-(5,6,7,8-tetrahydro-8-quinolinyl)-1,4-benzenedimethanamine] registered a concentration giving a half-maximal response (EC50) below 20 µg/mL. The compound further registered an inhibition at 20 µg/mL in experiment [2] above 20%. As to `[O-][n+]1ccccc1CNCc1ccc(CN(Cc2nc3ccccc3[nH]2)C2CCCc3cccnc32)cc1` (stereo not shown) [Example 70, N-(1-oxo-2-pyridinylmethyl)-N′-(1H-benzimidazol-2-ylmethyl)-N′-(5,6,7,8-tetrahydro-8-quinolinyl)-1,4-benzenedimethanamine], the EC50 in experiment [1] was below 20 µg/mL. In turn, `Oc1cccc2[nH]c(CN(Cc3ccc(CNCc4ccccn4)cc3)C3CCCc4cccnc43)nc12` (stereo not shown) [Example 7, N-(2-pyridinylmethyl)-N′-(4-hydroxy-1-H-benzimidazol-2-ylmethyl)-N′-(5,6,7,8-tetrahydro-8-quinolinyl)-1,4-benzenedimethanamine] registered an EC50 in experiment [1] below 20 µg/mL. In experiment [2], this compound registered an inhibition at 20 µg/mL above 20%. The compound `Cc1cccnc1CNCc1ccc(CN(Cc2nc3ccccc3[nH]2)C2CCCc3cccnc32)cc1` (stereo not shown) [Example 56, N-(3-methyl-2-pyridinylmethyl)-N′-(1H-benzimidazol-2-ylmethyl)-N′-(5,6,7,8-tetrahydro-8-quinolinyl)-1,4-benzenedimethanamine] displayed an EC50 in experiment [1] below 20 µg/mL. For the same compound, the inhibition at 20 µg/mL in experiment [2] was above 20%. For `Oc1cccc(CNCc2ccc(CN(Cc3nc4ccccc4[nH]3)C3CCCc4cccnc43)cc2)n1` (stereo not shown) [Example 58, N-(6-hydroxy-2-pyridinylmethyl)-N′-(1H-benzimidazol-2-ylmethyl)-N′-(5,6,7,8-tetrahydro-8-quinolinyl)-1,4-benzenedimethanamine] the same measures were below 20 µg/mL and above 20%.

As to `COC(=O)c1ccc2[nH]c(CN(Cc3ccc(CNCc4ccccn4)cc3)C3CCCc4cccnc43)nc2c1` (stereo not shown) [Example 6, N-(2-pyridinylmethyl)-N′-(5-carboxymethyl-1-H-benzimidazol-2-ylmethyl)-N′-(5,6,7,8-tetrahydro-8-quinolinyl)-1,4-benzenedimethanamine], the EC50 in experiment [1] was below 20 µg/mL. In experiment [2], this compound registered an inhibition at 20 µg/mL above 20%. As for `COc1ccc(OC)c2[nH]c(CN(Cc3ccc(CNCc4ccccn4)cc3)C3CCCc4cccnc43)nc12` (stereo not shown) [Example 15, N-(2-pyridinylmethyl)-N′-[4,7-dimethoxy-1H-benzimidazol-2-ylmethyl]-N′-(5,6,7,8-tetrahydro-8-quinolinyl)-1,4-benzenedimethanamine], the EC50 in experiment [1] was below 20 µg/mL. For the same compound, the inhibition at 20 µg/mL in experiment [2] was above 20%.

In experiment [1], `Cc1cccc2nc(CN(Cc3ccc(CNCc4ccccn4)cc3)C3CCCc4cccnc43)[nH]c12` (stereo not shown) [Example 20, N-(2-pyridinylmethyl)-N′-(4-methylbenzimidazol-2-ylmethyl)-N′-(5,6,7,8-tetrahydro-8-quinolinyl)-1,4-benzenedimethanamine] showed a concentration for a half-maximal effect (EC50) below 20 µg/mL. The compound further displayed an inhibition at 20 µg/mL in experiment [2] above 20%. For `Fc1ccc(-c2c[nH]c(CN(Cc3ccc(CNCc4ccccn4)cc3)C3CCCc4cccnc43)n2)cc1` (stereo not shown) [Example 36, N-(2-Pyridinylmethyl)-N′-[4-(4-fluorophenyl)-1H-imidazol-2-ylmethyl]-N′-(5,6,7,8-tetrahydro-8-quinolinyl)-1,4-benzenedimethanamine] the same measures were below 20 µg/mL and above 20%.

Take `COc1ccc(-c2cnc(CN(Cc3ccc(CNCc4ccccn4)cc3)C3CCCc4cccnc43)[nH]2)cc1` (stereo not shown) [Example 26, N-(2-pyridinylmethyl)-N′-[4-(4-methoxyphenyl)-1H-imidazol-2-ylmethyl]-N′-(5,6,7,8-tetrahydro-8-quinolinyl)-1,4-benzenedimethanamine]: the EC50 in experiment [1] is below 20 µg/mL. The same compound yielded an inhibition at 20 µg/mL in experiment [2] above 20%. In experiment [1], `CCOc1cccnc1CNCc1ccc(CN(Cc2nc3ccccc3[nH]2)C2CCCc3cccnc32)cc1` (stereo not shown) [Example 69, N-(3-ethoxy-2-pyridinylmethyl)-N′-(1H-benzimidazol-2-ylmethyl)-N′-(5,6,7,8-tetrahydro-8-quinolinyl)-1,4-benzenedimethanamine] showed a concentration giving a half-maximal response (EC50) below 20 µg/mL.

Take `COc1ccnc2c1CCCC2N(Cc1ccc(CNCc2ccccn2)cc1)Cc1nc2ccccc2[nH]1` (stereo not shown) [Example 44, N-(2-pyridinylmethyl)-N′-[1H-benzimidazol-2-ylmethyl]-N′-(4-methoxy-5,6,7,8-tetrahydro-8-quinolinyl)-1,4-benzenedimethanamine]: the EC50 in experiment [1] was below 20 µg/mL. In addition, the inhibition at 20 µg/mL in experiment [2] is above 20%. `c1ccc(N[C@H]2CCCC[C@@H]2N(Cc2ccc(CNCc3ccccn3)cc2)Cc2nc3ccccc3[nH]2)cc1` [Example 131] gave an EC50 in experiment [1] below 20 µg/mL.
